Reference: US20080200454A1, “CARBON-LINKED TETRAHYDRO-PYRAZOLO-PYRIDINE MODULATORS OF CATHEPSIN S” (priority 2007, published 2008)

Molecular target: Recombinant human cathepsin S (CatS) (Homo sapiens, UniProt P25774)
Test: Recombinant human cathepsin S (CatS) inhibition assay, fluorogenic substrate Z-Valine-Valine-Arginine-AMC;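 further: Baculovirus-expressed CatS in pH 5.0 sodium acetate buffer with DTT and NaCl, fluorescence read each minute over 20 min, inhibition derived from rate slope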
Details: not given

Recombinant human cathepsin S (CatS), sequence (P25774 115-331): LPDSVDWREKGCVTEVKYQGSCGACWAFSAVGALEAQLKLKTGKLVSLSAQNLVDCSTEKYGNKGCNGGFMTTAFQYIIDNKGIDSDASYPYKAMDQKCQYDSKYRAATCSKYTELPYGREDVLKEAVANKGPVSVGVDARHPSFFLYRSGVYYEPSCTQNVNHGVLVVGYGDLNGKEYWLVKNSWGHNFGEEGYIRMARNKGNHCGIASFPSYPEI

With CS(=O)(=O)N1CCc2c(c(-c3ccc(Cl)c(C#CCNS(=O)(=O)c4ccccc4)c3)nn2CCCN2CCOCC2)C1 [Example 54, N-(3-{2-Chloro-5-[5-methanesulfonyl-1-(3-morpholin-4-yl-propyl)-4,5,6,7-tetrahydro-1H-pyrazolo[4,3-c]pyridin-3-yl]-phenyl]-prop-2-ynyl)-benzenesulfonamide] as the compound, how does the IC50 read?
The IC50 was 7050 nM.

Which IC50 does the source give for NC(=O)C(=O)N1CCc2c(c(-c3ccc(Cl)c(C#Cc4ccc(CNCc5ccc(Cl)cc5)cc4)c3)nn2CCCN2CCCCC2)C1 [Example 449, 2-[3-(4-Chloro-3-{[4-({[(4-chlorophenyl)methyl]amino}methyl)phenyl]ethynyl}phenyl)-1-(3-piperidin-1-ylpropyl)-1,4,6,7-tetrahydro-5H-pyrazolo[4,3-c]pyridin-5-yl]-2-oxoacetamide] here?
Its IC50 is 100 nM.

How did the IC50 turn out when CS(=O)(=O)N1CCc2c(c(-c3ccc(Cl)c(C#Cc4ccc(CCC(=O)O)cc4)c3)nn2CCCN2CCOCC2)C1 [Example 9, 3-(4-{2-Chloro-5-[5-methanesulfonyl-1-(3-morpholin-4-yl-propyl)-4,5,6,7-tetrahydro-1H-pyrazolo[4,3-c]pyridin-3-yl]-phenylethynyl}-phenyl)-propionic acid] was run?
Its IC50 is 160 nM.

CS(=O)(=O)N1CCc2c(c(-c3ccc(Cl)c(CCc4ccc(Cl)c(CNCc5ccccc5)c4)c3)nn2CCCN2CCOCC2)C1 [Example 288, 1-[2-Chloro-5-(2-{2-chloro-5-[5-(methylsulfonyl)-1-(3-morpholin-4-ylpropyl)-4,5,6,7-tetrahydro-1H-pyrazolo[4,3-c]pyridin-3-yl]phenyl}ethyl)phenyl]-N-(phenylmethyl)methanamine] was tested. Which IC50 did it give?
The IC50 was 120 nM.

CS(=O)(=O)N1CCc2c(c(-c3ccc(C(F)(F)F)c(C#CCNS(=O)(=O)c4ccccc4)c3)nn2CC(O)CN2CCOCC2)C1 (stereo not drawn) [Example 305, N-(3-{5-[1-(2-Hydroxy-3-morpholin-4-ylpropyl)-5-(methylsulfonyl)-4,5,6,7-tetrahydro-1H-pyrazolo[4,3-c]pyridin-3-yl]-2-(trifluoromethyl)phenyl}prop-2-yn-1-yl)benzenesulfonamide] was tested. Which IC50 did it give?
Its IC50 is 3950 nM.

C[C@H]1COCCN1CCCn1nc(-c2ccc(Cl)c(C#Cc3ccc(Cl)c(CNCC(C)(C)O)c3)c2)c2c1CCN(C(=O)C(N)=O)C2 [Example 561, 2-(3-{4-Chloro-3-[(4-chloro-3-{[(2-hydroxy-2-methylpropyl)amino]methyl}phenyl)ethynyl]phenyl}-1-{3-[(3S)-3-methylmorpholin-4-yl]propyl}-1,4,6,7-tetrahydro-5H-pyrazolo[4,3-c]pyridin-5-yl)-2-oxoacetamide] was tested. Which IC50 did it give?
Its IC50 is 30 nM.

How did the IC50 turn out when CC(=O)N1CCc2c(c(-c3ccc(Cl)c(C#Cc4ccc(CNCc5ccc(Cl)cc5)cc4)c3)nn2CCCN2CCSCC2)C1 [Example 412, 1-[4-({5-[5-Acetyl-1-(3-thiomorpholin-4-ylpropyl)-4,5,6,7-tetrahydro-1H-pyrazolo[4,3-c]pyridin-3-yl]-2-chlorophenyl}ethynyl)phenyl]-N-[(4-chlorophenyl)methyl]methanamine] was run?
Its IC50 is 160 nM.

For CS(=O)(=O)N1CCc2c(c(-c3ccc(Cl)c(C#Cc4ccc(CO)cc4)c3)nn2CCCN2CCOCC2)C1 [Example 5, (4-{2-Chloro-5-[5-methanesulfonyl-1-(3-morpholin-4-yl-propyl)-4,5,6,7-tetrahydro-1H-pyrazolo[4,3-c]pyridin-3-yl]-phenylethynyl}-phenyl)-methanol], which IC50 is on record?
The IC50 was 290 nM.

For CCN(CC)CC#Cc1cc(-c2nn(CCCN3CCOCC3)c3c2CN(S(C)(=O)=O)CC3)ccc1Cl [Example 49, (3-{2-Chloro-5-[5-methanesulfonyl-1-(3-morpholin-4-yl-propyl)-4,5,6,7-tetrahydro-1H-pyrazolo[4,3-c]pyridin-3-yl]-phenyl}-prop-2-ynyl)-diethyl-amine], which IC50 is on record?
Its IC50 is 19500 nM.

How did the IC50 turn out when CS(=O)(=O)N1CCc2c(c(-c3ccc(Cl)c(C#Cc4ccc(O)cc4)c3)nn2CCCN2CCOCC2)C1 [Example 7, 4-{2-Chloro-5-[5-methanesulfonyl-1-(3-morpholin-4-yl-propyl)-4,5,6,7-tetrahydro-1H-pyrazolo[4,3-c]pyridin-3-yl]-phenylethynyl}-phenol] was run?
Its IC50 is 250 nM.

Which IC50 does the source give for CN(Cc1ccccc1)Cc1ccc(C#Cc2cc(-c3nn(CCCN4CCOCC4)c4c3CN(S(C)(=O)=O)CC4)ccc2Cl)cc1 [Example 77, Benzyl-(4-{2-chloro-5-[5-methanesulfonyl-1-(3-morpholin-4-yl-propyl)-4,5,6,7-tetrahydro-1H-pyrazolo[4,3-c]pyridin-3-yl]-phenylethynyl}-benzyl)-methyl-amine] here?
Its IC50 is 640 nM.

Same assay, conditions: CatS IC50

For NC(=O)N1CCc2c(c(-c3ccc(Cl)c(C#Cc4cccc(CNCc5ccc(F)cc5)c4)c3)nn2CCCN2CCSCC2)C1 [Example 517, 3-(4-Chloro-3-{[3-({[(4-fluorophenyl)methyl]amino}methyl)phenyl]ethynyl}phenyl)-1-(3-thiomorpholin-4-ylpropyl)-1,4,6,7-tetrahydro-5H-pyrazolo[4,3-c]pyridine-5-carboxamide], which IC50 is on record?
Its IC50 is 190 nM.

For CS(=O)(=O)N1CCc2c(c(-c3ccc(Cl)c(C#Cc4ccc(CNCc5ccc(Cl)cc5)cc4)c3)nn2CCCN2C[C@@H]3C[C@H]2CN3)C1 [Example 493, 1-[4-({2-Chloro-5-[1-{3-[(1S,4S)-2,5-diazabicyclo[2.2.1]hept-2-yl]propyl}-5-(methylsulfonyl)-4,5,6,7-tetrahydro-1H-pyrazolo[4,3-c]pyridin-3-yl]phenyl}ethynyl)phenyl]-N-[(4-chlorophenyl)methyl]methanamine], which IC50 is on record?
Its IC50 is 300 nM.

With NC(=O)C(=O)N1CCc2c(c(-c3ccc(Cl)c(C#Cc4ccc(CNCc5ccc(Cl)cc5)cc4)c3)nn2C[C@H](O)CN2CCSCC2)C1 [Example 250, (R)-2-[3-(4-Chloro-3-{4-[(4-chloro-benzylamino)-methyl]-phenylethynyl}-phenyl)-1-(2-hydroxy-3-thiomorpholin-4-yl-propyl)-1,4,6,7-tetrahydro-pyrazolo[4,3-c]pyridin-5-yl]-2-oxo-acetamide] as the compound, how does the IC50 read?
The IC50 was 80 nM.

CS(=O)(=O)N1CCc2c(c(-c3ccc(Cl)c(C#Cc4ccc(F)cc4F)c3)nn2CCCN2CCOCC2)C1 [Example 33, 3-[4-Chloro-3-(2,4-difluoro-phenylethynyl)-phenyl]-5-methanesulfonyl-1-(3-morpholin-4-yl-propyl)-4,5,6,7-tetrahydro-1H-pyrazolo[4,3-c]pyridine] was tested. Which IC50 did it give?
The IC50 was 750 nM.

How did the IC50 turn out when CS(=O)(=O)N1CCc2c(c(-c3ccc(Cl)c(C#Cc4cccnc4)c3)nn2C[C@@H](O)CN2CCC(C3CCNCC3)CC2)C1 [Example 475, (2S)-1-(4,4′-Bipiperidin-1-yl)-3-{3-[4-chloro-3-(pyridin-3-ylethynyl)phenyl]-5-(methylsulfonyl)-4,5,6,7-tetrahydro-1H-pyrazolo[4,3-c]pyridin-1-yl}propan-2-ol] was run?
The IC50 was 180 nM.

For NC(=O)N1CCc2c(c(-c3ccc(Cl)c(C#Cc4ccc(CNCc5ccc(Cl)cc5)cc4)c3)nn2CCCN2CCN(C3CCC3)CC2)C1 [Example 460, 3-(4-Chloro-3-{[4-({[(4-chlorophenyl)methyl]amino}methyl)phenyl]ethynyl}phenyl)-1-[3-(4-cyclobutylpiperazin-1-yl)propyl]-1,4,6,7-tetrahydro-5H-pyrazolo[4,3-c]pyridine-5-carboxamide], which IC50 is on record?
Its IC50 is 170 nM.

For CS(=O)(=O)N1CCc2c(c(-c3ccc(Cl)c(C#Cc4ccc5cc[nH]c5n4)c3)nn2CCCN2CCOCC2)C1 [Example 482, 3-[4-Chloro-3-(1H-pyrrolo[2,3-b]pyridin-6-ylethynyl)phenyl]-5-(methylsulfonyl)-1-(3-morpholin-4-ylpropyl)-4,5,6,7-tetrahydro-1H-pyrazolo[4,3-c]pyridine], which IC50 is on record?
The IC50 was 180 nM.

For NC(=O)N1CCc2c(c(-c3ccc(Cl)c(C#Cc4ccc(CNCc5ccc(N)cc5)cc4)c3)nn2CCCN2CCSCC2)C1 [Example 551, 3-(3-{[4-({[(4-Aminophenyl)methyl]amino}methyl)phenyl]ethynyl}-4-chlorophenyl)-1-(3-thiomorpholin-4-ylpropyl)-1,4,6,7-tetrahydro-5H-pyrazolo[4,3-c]pyridine-5-carboxamide], which IC50 is on record?
Its IC50 is 100 nM.

For CS(=O)(=O)N1CCc2c(c(-c3ccc(Cl)c(C#Cc4ccc(CNCc5ccc(Cl)cc5)cc4)c3)nn2CCCN2CCC(O)CC2)C1 [Example 330, 1-{3-[3-(4-Chloro-3-{[4-({[(4-chlorophenyl)methyl]amino}methyl)phenyl]ethynyl}phenyl)-5-(methylsulfonyl)-4,5,6,7-tetrahydro-1H-pyrazolo[4,3-c]pyridin-1-yl]propyl}piperidin-4-ol], which IC50 is on record?
The IC50 was 90 nM.

Which IC50 does the source give for CS(=O)(=O)N1CCc2c(c(-c3ccc(Cl)c(C#Cc4ccc(CNC5CC5)cc4)c3)nn2CCCN2CCOCC2)C1 [Example 323, N-{[4-({2-Chloro-5-[5-(methylsulfonyl)-1-(3-morpholin-4-ylpropyl)-4,5,6,7-tetrahydro-1H-pyrazolo[4,3-c]pyridin-3-yl]phenyl}ethynyl)phenyl]methyl}cyclopropanamine] here?
The IC50 was 750 nM.

How did the IC50 turn out when CS(=O)(=O)N1CCc2c(c(-c3ccc(Cl)c(C#Cc4ccccc4CN)c3)nn2CCCN2CCOCC2)C1 [Example 385, 1-[2-({2-Chloro-5-[5-(methylsulfonyl)-1-(3-morpholin-4-ylpropyl)-4,5,6,7-tetrahydro-1H-pyrazolo[4,3-c]pyridin-3-yl]phenyl}ethynyl)phenyl]methanamine] was run?
Its IC50 is 2720 nM.

Same assay, conditions: CatS IC50, Table 2; average of results obtained

CS(=O)(=O)N1CCc2c(c(-c3ccc(Cl)c(C#Cc4ccc(C=O)cc4)c3)nn2CCCN2CCOCC2)C1 [Example 37, 4-{2-Chloro-5-[5-methanesulfonyl-1-(3-morpholin-4-yl-propyl)-4,5,6,7-tetrahydro-1H-pyrazolo[4,3-c]pyridin-3-yl]-phenylethynyl}-benzaldehyde] was tested. Which IC50 did it give?
Its IC50 is 120 nM.

With CS(=O)(=O)N1CCc2c(c(-c3ccc(Cl)c(C#CCCO)c3)nn2CCCN2CCOCC2)C1 [Example 45, 4-{2-Chloro-5-[5-methanesulfonyl-1-(3-morpholin-4-yl-propyl)-4,5,6,7-tetrahydro-1H-pyrazolo[4,3-c]pyridin-3-yl]-phenyl}-but-3-yn-1-ol] as the compound, how does the IC50 read?
Its IC50 is 920 nM.
